Laboratory results from patent publication US8569294B2, “2-(cyclic amino)-pyrimidone derivatives” (Mitsubishi Tanabe Pharma Corporation, priority 2006, dated 2013).

Molecular target: T1, bovine cerebral TPK1 (Bos taurus, UniProt A0A3Q1MT31)
T1 construct: P-GS1 Phosphorylation by Bovine Cerebral TPK1; from tissue; host or cells: bovine cerebrum (brain)
Experiment: Inhibitory activity against P-GS1 phosphorylation by bovine cerebral TPK1
Type: biochemical
Settings: 41.7 μM [γ-32P] ATP, 25° C., 2 hours
Experimental: Inhibitory Activity of the Medicament of the Present Invention Against P-GS1 Phosphorylation by Bovine Cerebral TPK1
A mixture containing 100 mM MES-sodium hydroxide (pH 6.5), 1 mM magnesium acetate, 0.5 mM EGTA, 5 mM β-mercaptoethanol, 0.02% Tween 20, 10% glycerol, 12 μg/ml P-GS1, 41.7 μM [γ-^32P] ATP (68 kBq/ml), bovine cerebral TPK1 and a compound shown in Table (a final mixture contained 1.7% DMSO deriving from a solution of a test compound prepared in the presence of 10% DMSO) was used as a reaction system. The phosphorylation was started by adding ATP, and the reaction was conducted at 25° C. for 2 hours, and then stopped by adding 21% perchloric acid on ice cooling. The reaction mixture was centrifuged at 12,000 rpm for 5 minutes and adsorbed on P81 paper (Whatmann), and then the paper was washed four times with 75 mM phosphoric acid, three times with water and once with acetone. The paper was dried, and the residual radioactivity was measured using a liquid scintillation counter.

T1 sequence (A0A3Q1MT31 1-419): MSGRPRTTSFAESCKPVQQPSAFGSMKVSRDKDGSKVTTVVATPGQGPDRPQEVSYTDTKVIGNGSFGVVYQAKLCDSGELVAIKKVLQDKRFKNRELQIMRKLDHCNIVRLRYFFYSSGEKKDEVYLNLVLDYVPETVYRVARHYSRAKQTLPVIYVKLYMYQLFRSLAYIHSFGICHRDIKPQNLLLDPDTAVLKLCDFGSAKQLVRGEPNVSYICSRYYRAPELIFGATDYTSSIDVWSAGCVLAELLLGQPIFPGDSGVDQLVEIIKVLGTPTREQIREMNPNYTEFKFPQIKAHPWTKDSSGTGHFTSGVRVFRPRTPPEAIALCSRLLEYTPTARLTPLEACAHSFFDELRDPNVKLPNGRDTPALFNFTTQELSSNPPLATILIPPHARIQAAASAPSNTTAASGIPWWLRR

SMILES	IC50
Cn1c(N2CCO[C@H]3c4ccccc4OC[C@H]32)nc(-c2ccncn2)cc1=O [B46]	2.5 nM
C[C@@H]1COCCN1c1nc(-c2ccncc2F)cc(=O)n1C [B62]	7 nM
COc1ccc2c(c1)CC[C@H]1[C@H]2OCCN1c1nc(-c2ccncc2F)cc(=O)n1C [B20]	1.1 nM
Cn1c(N2CCO[C@H]3c4ccccc4CC[C@@H]32)nc(-c2ccncc2F)cc1=O [B6]	1.7 nM
COc1ccccc1NC1CC2CCC(C1)N2c1nc(-c2ccncc2F)cc(=O)n1C (centres unmarked) [B16]	2.8 nM
Cn1c(N2CCO[C@H]3CCCC[C@@H]32)nc(-c2ccncn2)cc1=O (racemic) [B69, 1-Methyl-2-((4aRS,8aRS)-trans-octahydro-benzo[1,4]oxazin-4-yl)-1H-[4,4′]bipyrimidinyl-6-one]	4 nM
COc1cccc2c1CC[C@@H]1[C@H]2OCCN1c1nc(-c2ccncc2)cc(=O)n1C [B37]	1.5 nM
Cn1c(N2CC3CCC2C(c2ccccc2)C3)nc(-c2ccncc2)cc1=O (centres unmarked) [B9]	1.2 nM
Cn1c(N2C3CCCC2CC3)nc(-c2ccncc2F)cc1=O [B77]	9.8 nM

More lines, now with the values ahead:

IC50	SMILES
2.2 nM	C[C@@H]1CN(c2ncccn2)CCN1c1nc(-c2ccncc2F)cc(=O)n1C [F56]
14 nM	COc1ccccc1N1C[C@@H]2CN(c3nc(-c4ccncc4F)cc(=O)n3C)C[C@@H]2C1 [D16]
7.9 nM	COc1cccc(N[C@@H]2CCN(c3nc(-c4ccncn4)cc(=O)n3C)C2)c1 [D42]
1.4 nM	C[C@@H]1CN(c2ccccc2)CCN1c1nc(-c2ccncn2)cc(=O)n1C [F24]
2.6 nM	C[C@H](N)c1nc(-c2ccc(N3CCN(c4nc(-c5ccncc5)cc(=O)n4C)[C@H](C)C3)cc2)no1 [F148]
2.4 nM	C[C@@H]1CN(C(=O)c2ccc(N(C)C)cc2)CCN1c1nc(-c2ccncn2)cc(=O)n1C [F69]
5.6 nM	Cn1c(N2CCCC2Cc2ccccc2)nc(-c2ccncc2F)cc1=O (centres unmarked) [D95]
14 nM	Cn1c(N2CCN3CCc4ccccc4C3C2)nc(-c2ccncc2)cc1=O (centres unmarked) [B109, 2-(1,3,4,6,7,11b-Hexahydro-pyrazino[2,1-a]isoquinolin-2-yl)-3-methyl-6-pyridin-4-yl-3H-pyrimidin-4-one]
